Laboratory results taken from patent US20110105389A1 (priority 2009, published 2011).

Key:
[1] = biological target: T1, GHS-R1a receptor (HEK293 cells expressing GHS-R1a receptor) (Homo sapiens, UniProt Q92847); test: Fluorescence functional assay (ghrelin receptor), Method B2, agonist and antagonist mode; assay type: cell-based; conditions: functional activity as an antagonist at the ghrelin receptor, Methods B2 and B3
T1 construct: host or cells: HEK293
In short: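 Calcium flux read by ImageTrak epifluorescence in HEK293 cells stably expressing GHS-R1a, loaded 1 h at 37 °C with Calcium-3 dye; buffer HBSS/20 mM Hepes, pH 7.4, with probenecid and BSA. Agonists injected after 10 s baseline, read 50 s more; antagonists 3 min. Sigmoidal fits gave EC50 or IC50.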

[2] = Metabolic stability in human liver microsomes, Method B8; assay type: in vitro ADME; conditions: human liver microsomes 0.8 mg/mL, 5 μM compound, 37° C.
Text: B8. Metabolic Stability in Human Liver Microsomes
The liver is the primary site for phase I (oxidation) and phase II (glucuronidation) enzymatic activity responsible for xenobiotic metabolism. Human liver microsomes are used as in vitro screen of metabolic activity for candidate drugs. Similar studies can be run with microsomes from other species, such as those used for in vivo studies, to determine any significant species differences in the stability profile. The aim of this study was to measure the broad-spectrum metabolic stability of representative compounds of the invention. The key aspects of the experimental design are summarized below: • Human liver microsomes (mixed pool of 15 male and female donors) were purchased from In Vitro Technologies (Baltimore, Md.). • Microsomes characterized for phase I (Cyp2A6, 2D6, 2E1, 1A2, 2C19, 3A4, 4A) and phase II (glucuronidation) enzymatic activity. • Assays are performed using a final concentration of 0.8 mg/mL of microsomes in 100 mM potassium phosphate buffer (1.5 mM NADPH, 8 mM MgCl2, pH 7.4, 37° C.). • Compounds are tested in duplicate samples at a single concentration of 5 μM (0.05% DMSO). • Test articles are incubated with the microsomes at 37° C.

[3] = biological target: T2, human ghrelin receptor (GRLN, growth hormone secretagogue receptor, hGHS-R1a) (Homo sapiens, UniProt Q92847); test: Competitive radioligand binding assay (ghrelin receptor), Method B1; conditions: Ghrelin receptor binding activity, Method B1
T2 construct: purchased PerkinElmer BioSignal #RBHGHSM, lot#1887; host or cells: HEK-293 cells, stably transfected (membranes)
T2 sequence (Q92847 whole entry): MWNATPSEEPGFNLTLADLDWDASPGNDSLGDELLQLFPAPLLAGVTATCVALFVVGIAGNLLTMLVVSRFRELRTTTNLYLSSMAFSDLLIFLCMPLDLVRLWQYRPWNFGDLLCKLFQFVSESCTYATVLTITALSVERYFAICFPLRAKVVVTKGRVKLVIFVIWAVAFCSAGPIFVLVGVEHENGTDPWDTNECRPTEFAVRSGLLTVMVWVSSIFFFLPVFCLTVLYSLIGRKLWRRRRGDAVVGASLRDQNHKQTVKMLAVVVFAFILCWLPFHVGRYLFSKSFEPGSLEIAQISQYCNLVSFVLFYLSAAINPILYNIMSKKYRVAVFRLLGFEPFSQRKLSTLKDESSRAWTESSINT
In short: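 Filtration competition format: bound radioactivity counted after GF/C harvesting and cold 50 mM Tris-HCl washes. Incubation lasted 30 min at room temperature in Hepes pH 7.4 buffer with Ca2+, Mg2+, EDTA and 0.4% BSA (DMSO ≤0.1% final); values from variable-slope non-linear regression.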

[4] = biological target: T3, ghrelin receptor (HEK-GHSR1 stable cells) (Homo sapiens, UniProt Q92847); test: Ghrelin receptor inverse agonist assay (HTRF IP-one), Method B4; assay type: cell-based; conditions: inverse agonist at the ghrelin receptor, Method B4
T3 construct: expressed in transfected cells
T3 sequence (Q92847 whole entry): as above
Text: B4. Ghrelin Receptor Inverse Agonist Assay […]
In addition, the following method can be utilized to assay for inverse agonist activity. (Thomsen, W.; et al. Curr. Opin. Biotechnol. 2005, 16, 655-665; Tozawa-Takahashi F; et al., 11th SBS Annual Conference. September 2005, Geneva; Trinquet, E.; Fink, M.; Bazin, H.; et al. Anal. Biochem. 2006, 358, 126-135; Bergsdorf, C.; Kropp-Goerkis, C.; Kaehler, I.; Ketscher, L.; Boerner, U.; Parczyk, K.; Bader, B. Assay Drug Dev. Technol. 2008, 6, 39-53.)
• 1. Remove culture medium from the plate by inversion. • 2. Add 70 μl of compound/well. • 3. Incubate 30 min at 37° C. • 4. Stop the reaction by adding 15 μl of lysis buffer/well. • 5. Add 15 μl of d2/well. • 6. Add 15 μl of Anti-IP1 cryptate/well. • 7. Incubate 1 h at room temp on an orbital shaker at 100 RPM. • 8. Read the fluorescence in a plate reader (Tecan GeniosPro or similar)
The above sequence was performed using the HTRF IP-one kit (CisBio cat#62P1APEC). For the simultaneous assay of multiple test compounds, 96-well plates can be utilized in this assay (white plate with flat-bottom well, Falcon #353296). These were seeded overnight with 100 000 of HEK-GHSR1 stable cells/well. • Wells A1 and A2 of each plate are used as negative control (wells without d2). Compounds are typically tested in replicate at the following concentrations:
Compounds are stored at 10 mM in 100% DMSO.
1st dilution 1/10 in 100% DMSO (1 mM final concentration).
2nd dilution 1/10 in H2O (0.1 mM final concentration).
Other dilutions are performed in a 96-well plate in stimulation buffer.
The results for representative compounds of the invention are provided in the Examples.

T1 sequence (Q92847 whole entry): as above

Row | SMILES | Antagonist Activity [1] | HLM, metabolic stability in human liver microsomes [2] [μL/min/mg protein] | IC50 [3] [nM] | IC50 [4] [nM]
1 | COc1cccc(C[C@H]2NC(=O)[C@H](C(C)O)N(C)C(=O)[C@H](C(C)C)NCCOc3ccccc3CC[C@@H](C)NC2=O)c1 (stereo partly shown) [Compound 1371] | B (B = 1-10 nM) | 30.5 | – | –
2 | CC(C)[C@@H]1NCCOc2ccccc2CC[C@@H](C)NC(=O)[C@@H](Cc2ccc(F)c(F)c2)NC(=O)[C@H](C(C)O)N(C)C1=O (stereo partly shown) [Compound 1372] | A (A <1 nM) | 60.8 | – | –
3 | Cc1cccc(C[C@H]2NC(=O)[C@H](C(C)O)N(C)C(=O)[C@H](C(C)C)NCCOc3ccccc3CC[C@@H](C)NC2=O)c1 (stereo partly shown) [Compound 1373] | A (A <1 nM) | 31 | – | –
4 | CC(C)[C@@H]1NCCOc2ccccc2CC[C@@H](C)NC(=O)[C@@H](Cc2cccc(C#N)c2)NC(=O)[C@H](C(C)O)N(C)C1=O (stereo partly shown) [Compound 1374] | B (B = 1-10 nM) | 35.8 | – | –
5 | CC(C)[C@@H]1NCCOc2c(F)cccc2CCCNC(=O)[C@@H](Cc2ccccc2)NC(=O)[C@H](C(C)O)N(C)C1=O (stereo partly shown) [Compound 1376] | C (C = 10-100 nM) | 32.2 | – | –
6 | CC(C)[C@@H]1NCCOc2cccc(F)c2CCCNC(=O)[C@@H](Cc2ccccc2)NC(=O)[C@H](C(C)O)N(C)C1=O (stereo partly shown) [Compound 1378] | C (C = 10-100 nM) | 42.9 | – | –
7 | CC[C@@H]1CCc2ccccc2OCCN[C@@H](C(C)C)C(=O)N(C)[C@@H](C(C)O)C(=O)N[C@H](Cc2ccccc2)C(=O)N1 (stereo partly shown) [Compound 1393] | B (B = 1-10 nM) | 46.6 | – | –
8 | Cc1cccc(C[C@H]2NC(=O)[C@H](C(C)O)N(C)C(=O)[C@H](C(C)C)NCCOc3cc(F)ccc3CC[C@@H](C)NC2=O)c1 (stereo partly shown) [Compound 1451] | B (B = 1-10 nM) | 10.4 | – | –
9 | CC(C)C1NCCOc2cc(F)ccc2C=CCNC(=O)C(Cc2ccc(F)cc2)NC(=O)C(C(C)O)N(C)C1=O (stereo not shown) [Compound 1690] | – | 21.8 | 1 to 10 | 50 to 100
10 | CC(C)C1NCCOc2ccccc2C#CCNC(=O)C(Cc2cccc(F)c2)NC(=O)C(C(C)O)N(C)C1=O (stereo not shown) [Compound 1691] | – | 53.7 | 1 to 10 | 100 to 500
11 | CCC(C)C1NCCOc2ccccc2CCCNC(=O)C(Cc2ccc(Cl)cc2)NC(=O)C(C(C)O)N(C)C1=O (stereo not shown) [Compound 1699] | C (C = 10-100 nM) | 85.2 | 10 to 100 | 100 to 500
12 | CC(C)C1NCCOc2cc(F)ccc2C=CCNC(=O)C(Cc2ccccc2)NC(=O)C(C(C)O)N(C)C1=O (stereo not shown) [Compound 1702] | – | 14.1 | 1 to 10 | 50 to 100
13 | CCC(C)C1NCCOc2ccccc2C#CCNC(=O)C(Cc2ccc(Cl)cc2)NC(=O)C(C(C)O)N(C)C1=O (stereo not shown) [Compound 1704] | – | 33.5 | 10 to 100 | 100 to 500
14 | CC[C@@H]1CCc2c(F)cccc2OCCN[C@@H](C(C)C)C(=O)N(C)[C@@H](C(C)O)C(=O)N[C@H](Cc2ccc(F)cc2)C(=O)N1 (stereo partly shown) [Compound 1723] | – | 64.3 | 10 to 100 | 100 to 500
15 | CC[C@@H]1CCc2c(F)cccc2OCCN[C@@H](C(C)C)C(=O)N(C)[C@@H](C(C)O)C(=O)N[C@H](Cc2c[nH]c3ccccc23)C(=O)N1 (stereo partly shown) [Compound 1725] | – | 66.5 | 10 to 100 | 100 to 500
16 | CCC(C)C1NCCOc2ccccc2C=CCNC(=O)C(Cc2ccccc2C)NC(=O)C(C(C)O)N(C)C1=O (stereo not shown) [Compound 1737] | – | 83.9 | 1 to 10 | 50 to 100
17 | CCC(C)C1NCCOc2ccccc2C=CCNC(=O)C(Cc2ccccc2Cl)NC(=O)C(C(C)O)N(C)C1=O (stereo not shown) [Compound 1738] | – | 53.2 | 1 to 10 | 10 to 50
18 | CCC(C)C1NCCOc2cc(F)ccc2C=CCNC(=O)C(Cc2ccc(Cl)cc2)NC(=O)C(C(C)O)N(C)C1=O (stereo not shown) [Compound 1739] | B (B = 1-10 nM) | 26.1 | 1 to 10 | 100 to 500
19 | CCC(C)C1NCCOc2ccc(F)cc2C=CCNC(=O)C(Cc2ccc(Cl)cc2)NC(=O)C(C(C)O)N(C)C1=O (stereo not shown) [Compound 1740] | C (C = 10-100 nM) | 28.3 | 1 to 10 | 100 to 500
20 | CC(O)[C@H]1C(=O)N[C@H](Cc2ccc(Cl)cc2)C(=O)N[C@H](C)CCc2ccccc2OCCN[C@@H](C(C)(C)C)C(=O)N1C (stereo partly shown) [Compound 1742] | – | 157.4 | 10 to 100 | 10 to 50
21 | CC(O)[C@H]1C(=O)N[C@H](Cc2c[nH]c3ccccc23)C(=O)N[C@H](C)CCc2ccccc2OCCN[C@@H](C2CC2)C(=O)N1C (stereo partly shown) [Compound 1745] | – | 117.0 | 10 to 100 | 100 to 500
22 | CC(C)[C@@H]1NCCOc2cc(F)ccc2CC[C@@H](C)NC(=O)[C@@H](Cc2ccc(Cl)cc2)NC(=O)[C@H](C(C)O)N(C)C1=O (stereo partly shown) [Compound 1758] | – | 90.4 | 1 to 10 | 10 to 50
23 | CC[C@@H]1C#Cc2ccc(F)cc2OCCN[C@@H](C(C)C)C(=O)N(C)[C@@H](C(C)O)C(=O)N[C@H](Cc2cccc(F)c2)C(=O)N1 (stereo partly shown) [Compound 1760] | – | 34.8 | 1 to 10 | 50 to 100
24 | CCC(C)C1NCCOc2ccccc2C=CCNC(=O)C(Cc2ccc(Cl)cc2Cl)NC(=O)C(C(C)O)N(C)C1=O (stereo not shown) [Compound 1761] | – | 77.0 | 10 to 100 | 50 to 100
25 | CC(O)[C@H]1C(=O)N[C@H](Cc2c[nH]c3ccccc23)C(=O)N[C@H](C)CCc2ccccc2OCCN[C@@H](C(C)(C)C)C(=O)N1C (stereo partly shown) [Compound 1762] | – | 73.4 | 10 to 100 | 100 to 500
